What was measured:
hM4 receptors = biological target: T1, hM4 receptors (Homo sapiens, UniProt P08173); assay: Human M4 PAM PERK assay (CHO cells, TR-FRET, with EC20 acetylcholine); type: cell-based
T1 construct: expressed in transfected cells; host or cells: CHO cells
T1 sequence (P08173 1-479): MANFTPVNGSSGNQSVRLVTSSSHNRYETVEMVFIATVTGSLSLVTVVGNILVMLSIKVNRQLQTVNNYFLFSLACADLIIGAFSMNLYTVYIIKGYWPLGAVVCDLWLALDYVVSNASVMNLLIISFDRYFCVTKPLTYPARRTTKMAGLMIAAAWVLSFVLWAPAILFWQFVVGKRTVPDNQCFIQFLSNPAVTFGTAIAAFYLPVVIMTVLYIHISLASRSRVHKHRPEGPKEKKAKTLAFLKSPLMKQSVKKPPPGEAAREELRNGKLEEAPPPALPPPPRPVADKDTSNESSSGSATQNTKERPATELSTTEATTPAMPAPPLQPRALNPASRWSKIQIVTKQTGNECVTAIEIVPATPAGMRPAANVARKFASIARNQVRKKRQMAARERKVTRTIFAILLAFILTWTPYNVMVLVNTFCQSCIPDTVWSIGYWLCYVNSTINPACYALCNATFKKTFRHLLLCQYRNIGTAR
Experimental: (§1) Chinese hamster ovary (CHO) cells expressing either hM4 or rM4 receptors were frozen in assay ready vials (5×10^6 cells/vial) after bulking-up in culture. The day before an assay, vial(s) were thawed and cells seeded in 384 well white proxiplates at 1000/well for hM4 cells and at 2000/well for rM4 cells, in 10 μL of growth media (Hams/F12 with glutamax and 10% FCS) and incubated overnight at 37° C./5% CO2.
(§2) On the following morning, the growth media was removed by ‘flicking out’ over a bin, patting the inverted plate onto tissue, and then replacing with 10 μL of wash media (Hams/F12 with glutamax and 8 mM HEPES, NB: serum free). Then, the wash media was removed in the same way and replaced with 8 μL/well of the serum free media. Plates were then re-incubated for a further 4 hours at 37° C./5% CO2.
(§3) Compounds for testing were solubilized to 10 mM in DMSO and compound addition plates, consisting of ten-point concentration response curves (CRC) in duplicate points (10 μM top concentration, ½ log dilution series), were prepared by acoustic dispensing and the compound management group.
(§4) After the 4-hour incubation in serum free media, a 4 μL aliquot of the 3×compound solution containing an EC20 of acetylcholine (10 nM final concentration) was added to the cell plate using a 384 well plate to plate transfer. Then, the plate lid was replaced, and the cells incubated for 5 mins at 37° C./5% CO2. Following this final incubation, all cellular processes were stopped by the addition of 4 μL/well of lysis and blocking buffer and plates were incubated for 30 minutes at RT on an orbital shaker (gentle setting). Then, a final addition of 4 μL/well of antibody detection mix, containing both the Europium-Cryptate (donor) and d2 (acceptor) tagged detection components, was added followed by a further 2-hour incubation at RT, and then the plate was read using a TR-FRET (time resolved fluorescence resonance energy transfer) based protocol.

rM4 receptors = biological target: T2, rM4 receptors (Rattus norvegicus, UniProt P08485); assay: Rat M4 PAM PERK assay (CHO cells, TR-FRET, with EC20 acetylcholine); type: cell-based
T2 construct: expressed in transfected cells; host or cells: CHO cells
T2 sequence (P08485 1-478): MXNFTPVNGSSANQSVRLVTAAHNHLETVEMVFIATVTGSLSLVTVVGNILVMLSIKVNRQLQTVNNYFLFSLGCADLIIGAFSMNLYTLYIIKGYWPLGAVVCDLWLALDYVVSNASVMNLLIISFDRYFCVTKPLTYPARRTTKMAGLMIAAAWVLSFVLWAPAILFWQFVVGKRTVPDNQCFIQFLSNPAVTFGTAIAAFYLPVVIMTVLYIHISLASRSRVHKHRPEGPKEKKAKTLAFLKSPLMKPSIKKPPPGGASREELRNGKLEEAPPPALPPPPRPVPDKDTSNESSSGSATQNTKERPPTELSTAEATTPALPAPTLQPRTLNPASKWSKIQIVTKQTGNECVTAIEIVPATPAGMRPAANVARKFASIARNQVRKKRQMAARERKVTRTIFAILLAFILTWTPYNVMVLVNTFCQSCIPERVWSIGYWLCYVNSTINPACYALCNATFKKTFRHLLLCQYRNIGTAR
Experimental: as §1, §2, §3, §4

| SMILES | EC50 (hM4 receptors) [nM] | EC50 (rM4 receptors) [nM] |
| --- | --- | --- |
| COc1cncc(N2CC(CC(=O)N3Cc4c(C)c(Cl)c(=O)n(C)c4C3)C2)c1 [Compound I-75] | < 50 | > 1000 |
| Cc1c2c(n(C)c(=O)c1C)CN(C(=O)CC1CN(c3cnc(C(F)(F)F)cn3)C1)C2 [Compound I-50] | 200 to 1000 | 50 to 200 |
| Cc1c2c(n(C)c(=O)c1C(F)(F)F)CN(C(=O)CC1CN(c3cccnc3)C1)C2 [Compound I-108, 1,4-Dimethyl-6-(2-(1-(pyridin-3-yl)azetidin-3-yl)acetyl)-3-(trifluoromethyl)-1,5,6,7-tetrahydro-2H-pyrrolo[3,4-b]pyridin-2-one] | 50 to 200 | > 1000 |
| Cc1cc2c(n(C)c1=O)CN(C(=O)CC1CN(c3ccnc(C(F)(F)F)c3)C1)C2 [Compound I-112, 1,3-Dimethyl-6-(2-(1-(2-(trifluoromethyl)pyridin-4-yl)azetidin-3-yl)acetyl)-1,5,6,7-tetrahydro-2H-pyrrolo[3,4-b]pyridin-2-one] | 50 to 200 | > 1000 |
| Cc1cc(=O)n(CC2CC2)c2c1CN(C(=O)CC1CN(c3ccnc(C(F)(F)F)c3)C1)C2 [Compound I-101, 1-(Cyclopropylmethyl)-4-methyl-6-(2-(1-(2-(trifluoromethyl)pyridin-4-yl)azetidin-3-yl)acetyl)-1,5,6,7-tetrahydro-2H-pyrrolo[3,4-b]pyridin-2-one] | 200 to 1000 | 200 to 1000 |
| Cc1cc(=O)n(CC(F)(F)F)c2c1CN(C(=O)CC1CN(c3ccc(C(F)(F)F)cc3)C1)C2 [Compound I-105, 4-Methyl-1-(2,2,2-trifluoroethyl)-6-(2-(1-(4-(trifluoromethyl)phenyl)azetidin-3-yl)acetyl)-1,5,6,7-tetrahydro-2H-pyrrolo[3,4-b]pyridin-2-one] | > 1000 | 200 to 1000 |
| COc1cncc(N2CC(CC(=O)N3Cc4c(C)cc(=O)n(C)c4C3)C2)c1 [Compound I-15] | < 50 | 200 to 1000 |
| Cc1cc(=O)n(C)c2c1CN(C(=O)CC1CN(c3ccncn3)C1)C2 [Compound I-6] | 200 to 1000 | 200 to 1000 |
| Cc1c2c(n(C)c(=O)c1Cl)CN(C(=O)CC1CN(c3ccccc3C(F)(F)F)C1)C2 [Compound I-74] | 50 to 200 | 200 to 1000 |
| Cc1c2c(n(C)c(=O)c1Cl)CN(C(=O)CC1CN(c3cncnc3)C1)C2 [Compound I-69] | < 50 | 50 to 200 |
| Cc1c2c(n(C)c(=O)c1F)CN(C(=O)CC1CN(c3cccc(C(F)(F)F)c3F)C1)C2 [Compound I-86] | 200 to 1000 | 200 to 1000 |
| CSc1c2c(n(C)c(=O)c1C)CN(C(=O)CC1CN(c3ccnc(C(F)(F)F)c3)C1)C2 [Compound I-104, 1,3-Dimethyl-4-(methylthio)-6-(2-(1-(2-(trifluoromethyl)pyridin-4-yl)azetidin-3-yl)acetyl)-1,5,6,7-tetrahydro-2H-pyrrolo[3,4-b]pyridin-2-one] | 200 to 1000 | > 1000 |
| Cc1c2c(n(C)c(=O)c1F)CN(C(=O)CC1CN(c3ccc(F)c(C(F)(F)F)c3)C1)C2 [Compound I-89] | 50 to 200 | 50 to 200 |
| Cc1c2c(n(C)c(=O)c1Cl)CN(C(=O)CC1CN(c3ccnnc3)C1)C2 [Compound I-81, 3-Chloro-1,4-dimethyl-6-(2-(1-(pyridazin-4-yl)azetidin-3-yl)acetyl)-1,5,6,7-tetrahydro-2H-pyrrolo[3,4-b]pyridin-2-one] | < 50 | > 1000 |
| Cc1cc(=O)n(C)c2c1CN(C(=O)CC1CN(c3ccc(C(F)(F)F)cc3)C1)C2 [Compound I-5] | < 50 | > 1000 |
| Cc1c2c(n(C)c(=O)c1C)CN(C(=O)CC1CN(c3ccc(OC(F)(F)F)cc3)C1)C2 [Compound I-52] | 50 to 200 | 50 to 200 |
| CCc1c(C)c2c(n(C)c1=O)CN(C(=O)CC1CN(c3ccnc(C(F)(F)F)c3)C1)C2 [Compound I-107, 3-Ethyl-1,4-dimethyl-6-(2-(1-(2-(trifluoromethyl)pyridin-4-yl)azetidin-3-yl)acetyl)-1,5,6,7-tetrahydro-2H-pyrrolo[3,4-b]pyridin-2-one] | 50 to 200 | > 1000 |

| SMILES | EC50 (hM4 receptors) [nM] | EC50 (rM4 receptors) [nM] |
| --- | --- | --- |
| Cc1c2c(n(C)c(=O)c1C)CN(C(=O)CC1CN(c3cccc(F)c3F)C1)C2 [Compound I-48] | < 50 | 50 to 200 |
| Cc1c2c(n(C)c(=O)c1Cl)CN(C(=O)CC1CN(c3cnccn3)C1)C2 [Compound I-72] | < 50 | 50 to 200 |
| Cc1cc(=O)n(C)c2c1C(C)N(C(=O)CC1CN(c3ccnc(C(F)(F)F)c3)C1)C2 (racemic) [Compound I-113, (±)-1,4,5-Trimethyl-6-(2-(1-(2-(trifluoromethyl)pyridin-4-yl)azetidin-3-yl)acetyl)-1,5,6,7-tetrahydro-2H-pyrrolo[3,4-b]pyridin-2-one] | > 1000 | > 1000 |
| COc1cccc(N2CC(CC(=O)N3Cc4c(C)c(C)c(=O)n(C)c4C3)C2)c1 [Compound I-47] | 50 to 200 | 200 to 1000 |
| COc1c2c(n(C)c(=O)c1C)CN(C(=O)CC1CN(c3ccncn3)C1)C2 [Compound I-98] | < 50 | > 1000 |
| Cc1c2c(n(C)c(=O)c1C)CN(C(=O)CC1CN(c3ccc(F)c(C(F)(F)F)c3)C1)C2 [Compound I-49] | 50 to 200 | 50 to 200 |
| Cc1cc(=O)n(C)c2c1CN(C(=O)CC1CN(c3ccc(F)c(F)c3)C1)C2 [Compound I-32] | 50 to 200 | 200 to 1000 |
| Cc1c2c(n(C)c(=O)c1Cl)CN(C(=O)CC1CN(c3cccc(C(F)(F)F)c3)C1)C2 [Compound I-73] | < 50 | 50 to 200 |
| Cc1cc(=O)n(C)c2c1CN(C(=O)CC1CN(c3ccc(S(C)(=O)=O)cc3)C1)C2 [Compound I-2, 1,4-Dimethyl-6-(2-(1-(4-(methylsulfonyl)phenyl)azetidin-3-yl)acetyl)-1,5,6,7-tetrahydro-2H-pyrrolo[3,4-b]pyridin-2-one] | 50 to 200 | > 1000 |
| Cc1c2c(n(C)c(=O)c1F)CN(C(=O)CC1CN(c3cccc(F)c3F)C1)C2 [Compound I-87] | < 50 | 50 to 200 |
| COc1cc(N2CC(CC(=O)N3Cc4c(C)c(C)c(=O)n(C)c4C3)C2)cc(C(F)(F)F)n1 [Compound I-54] | 200 to 1000 | 200 to 1000 |
| Cc1c2c(n(C)c(=O)c1Cl)CN(C(=O)CC1CN(c3ccncn3)C1)C2 [Compound I-70] | < 50 | 200 to 1000 |
| Cc1c2c(n(CC(F)(F)F)c(=O)c1Cl)CN(C(=O)CC1CN(c3cncnc3)C1)C2 [Compound I-96] | 50 to 200 | 200 to 1000 |
| Cc1c2c(n(C)c(=O)c1C)CN(C(=O)CC1CN(c3ccc(C4CC4)c(F)c3)C1C)C2 (centres unmarked) [Compound I-60, 6-(2-(1-(4-Cyclopropyl-3-fluorophenyl)-2-methylazetidin-3-yl)acetyl)-1,3,4-trimethyl-1,5,6,7-tetrahydro-2H-pyrrolo[3,4-b]pyridin-2-one] | < 50 | < 50 |
| Cc1c2c(n(C)c(=O)c1Cl)CN(C(=O)CC1CN(c3cccnc3)C1)C2 [Compound I-67] | < 50 | 50 to 200 |
| Cc1c2c(n(CC(F)(F)F)c(=O)c1Cl)CN(C(=O)CC1CN(c3ccccc3)C1)C2 [Compound I-94] | 200 to 1000 | 200 to 1000 |
| Cc1c2c(n(C)c(=O)c1C)CN(C(=O)CC1CN(c3ccc(C4CC4)c(F)c3)C1)C2 [Compound I-53] | < 50 | 50 to 200 |
